ChEMBL document CHEMBL1156506, “Changes to the HIV long terminal repeat and to HIV integrase differentially impact HIV integrase assembly, activity, and the binding of strand transfer inhibitors” (J Biol Chem, 2007)

What was measured:
Conditions in all cases: tested as the 3H-labelled form
[1] = test system: Human immunodeficiency virus; assay: Binding affinity to HIV wild type integrase using U5 GddA LTR relative to wild type LTR
[2] = test system: Human immunodeficiency virus; assay: Inhibition of HIV wild type integrase assessed as strand transfer activity using U5 GACA LTR by scintillation proximity assay relative to wild type LTR; parameters: scale not given: the % may be the effect or the level left
[3] = test system: Human immunodeficiency virus type 1 integrase (Human immunodeficiency virus 1), Q7ZJM1 [N155H]; assay: Inhibition of HIV recombinant integrase N155H mutant assessed as strand transfer activity using U5 ApTCA LTR by scintillation proximity assay relative to wild type LTR; parameters: scale not given: the % may be the effect or the level left
[4] = test system: Human immunodeficiency virus type 1 integrase (Human immunodeficiency virus 1), Q7ZJM1 [Q148R]; assay: Binding affinity to HIV recombinant integrase Q148R mutant using U5 GTCA LTR relative to wild type LTR
[5] = test system: Human immunodeficiency virus; assay: Binding affinity to HIV wild type integrase using U5 GInCA LTR relative to wild type LTR
[6] = test system: Human immunodeficiency virus; assay: Inhibition of HIV wild type integrase assessed as strand transfer activity using U5 GTCA LTR by scintillation proximity assay relative to wild type LTR; parameters: scale not given: the % may be the effect or the level left
[7] = test system: Human immunodeficiency virus type 1 integrase (Human immunodeficiency virus 1), Q7ZJM1 [Q148R]; assay: Inhibition of HIV recombinant integrase Q148R mutant assessed as strand transfer activity using U5 TTCA LTR by scintillation proximity assay relative to wild type LTR; parameters: scale not given: the % may be the effect or the level left
[8] = test system: Human immunodeficiency virus type 1 integrase (Human immunodeficiency virus 1), Q7ZJM1 [N155H]; assay: Inhibition of HIV recombinant integrase N155H mutant assessed as specific strand transfer activity using U5 dTCA LTR by scintillation proximity assay relative to wild type LTR; parameters: scale not given: the % may be the effect or the level left
[9] = test system: Human immunodeficiency virus; assay: Inhibition of HIV wild type integrase assessed as strand transfer activity using U5 GTCAGT LTR by scintillation proximity assay relative to wild type LTR; parameters: scale not given: the % may be the effect or the level left
[10] = test system: Human immunodeficiency virus; assay: Binding affinity to HIV wild type integrase U5 CTCA LTR relative to wild type LTR
[11] = test system: Human immunodeficiency virus type 1 integrase (Human immunodeficiency virus 1), Q7ZJM1 [N155H]; assay: Inhibition of HIV recombinant integrase N155H mutant assessed as specific strand transfer activity using U5 TTCA LTR by scintillation proximity assay relative to wild type LTR; parameters: scale not given: the % may be the effect or the level left
[12] = test system: Human immunodeficiency virus type 1 integrase (Human immunodeficiency virus 1), Q7ZJM1 [Q148R]; assay: Inhibition of HIV recombinant integrase Q148R mutant assessed as strand transfer activity using U5 ApTCA LTR by scintillation proximity assay relative to wild type LTR; parameters: scale not given: the % may be the effect or the level left
[13] = test system: Human immunodeficiency virus; assay: Binding affinity to HIV wild type integrase using U5 GTGT LTR relative to wild type LTR
[14] = test system: Human immunodeficiency virus type 1 integrase (Human immunodeficiency virus 1), Q7ZJM1 [Q148R]; assay: Binding affinity to HIV recombinant integrase Q148R mutant using U5 ApTCA LTR relative to wild type LTR
[15] = test system: Human immunodeficiency virus type 1 integrase (Human immunodeficiency virus 1), Q7ZJM1 [N155H]; assay: Binding affinity to HIV recombinant integrase N155H mutant using U5 GTC LTR relative to wild type LTR
[16] = test system: Human immunodeficiency virus; assay: Inhibition of HIV wild type integrase assessed as specific strand transfer activity using U5 GInCA LTR by scintillation proximity assay relative to wild type LTR; parameters: scale not given: the % may be the effect or the level left
[17] = test system: Human immunodeficiency virus; assay: Inhibition of HIV wild type integrase assessed as specific strand transfer activity using U5 GGCA LTR by scintillation proximity assay relative to wild type LTR; parameters: scale not given: the % may be the effect or the level left
[18] = test system: Human immunodeficiency virus type 1 integrase (Human immunodeficiency virus 1), Q7ZJM1 [Q148R]; assay: Inhibition of U5 GTC LTR HIV recombinant integrase Q148R mutant assessed as specific strand transfer activity using by scintillation proximity assay relative to wild type LTR; parameters: scale not given: the % may be the effect or the level left
[19] = test system: Human immunodeficiency virus; assay: Binding affinity to HIV wild type integrase using U5 GTTA LTR relative to wild type LTR
[20] = test system: Human immunodeficiency virus type 1 integrase (Human immunodeficiency virus 1), Q7ZJM1 [Q148R]; assay: Inhibition of U5 GdCA LTR HIV recombinant integrase Q148R mutant assessed as specific strand transfer activity using by scintillation proximity assay relative to wild type LTR; parameters: scale not given: the % may be the effect or the level left
[21] = test system: Human immunodeficiency virus; assay: Inhibition of HIV wild type integrase assessed as specific strand transfer activity using U5 GTGA LTR by scintillation proximity assay relative to wild type LTR; parameters: scale not given: the % may be the effect or the level left
[22] = test system: Human immunodeficiency virus type 1 integrase (Human immunodeficiency virus 1), Q7ZJM1 [N155H]; assay: Binding affinity to HIV recombinant integrase N155H mutant using U5 GddA LTR relative to wild type LTR
[23] = test system: Human immunodeficiency virus type 1 integrase (Human immunodeficiency virus 1), Q7ZJM1 [Q148R]; assay: Inhibition of U5 INTCA LTR HIV recombinant integrase Q148R mutant assessed as specific strand transfer activity using by scintillation proximity assay relative to wild type LTR; parameters: scale not given: the % may be the effect or the level left
[24] = test system: Human immunodeficiency virus; assay: Inhibition of HIV wild type integrase assessed as strand transfer activity using U5 GTCT LTR by scintillation proximity assay relative to wild type LTR; parameters: scale not given: the % may be the effect or the level left
[25] = test system: Human immunodeficiency virus; assay: Inhibition of HIV wild type integrase assessed as strand transfer activity using U5 ApTCA LTR by scintillation proximity assay relative to wild type LTR; parameters: scale not given: the % may be the effect or the level left
[26] = test system: Human immunodeficiency virus type 1 integrase (Human immunodeficiency virus 1), Q7ZJM1 [N155H]; assay: Inhibition of HIV recombinant integrase N155H mutant assessed as specific strand transfer activity using U5 INTCA LTR by scintillation proximity assay relative to wild type LTR; parameters: scale not given: the % may be the effect or the level left
[27] = test system: Human immunodeficiency virus; assay: Inhibition of HIV wild type integrase assessed as strand transfer activity using U5 ATCA LTR by scintillation proximity assay relative to wild type LTR; parameters: scale not given: the % may be the effect or the level left
[28] = test system: Human immunodeficiency virus type 1 integrase (Human immunodeficiency virus 1), Q7ZJM1 [Q148R]; assay: Binding affinity to HIV recombinant integrase Q148R mutant using U5 GdCA LTR relative to wild type LTR
[29] = test system: Human immunodeficiency virus type 1 integrase (Human immunodeficiency virus 1), Q7ZJM1 [N155H]; assay: Inhibition of HIV recombinant integrase N155H mutant assessed as strand transfer activity using U5 GdCA LTR by scintillation proximity assay relative to wild type LTR; parameters: scale not given: the % may be the effect or the level left
[30] = test system: Human immunodeficiency virus; assay: Inhibition of HIV wild type integrase assessed as specific strand transfer activity using U5 GdC LTR by scintillation proximity assay relative to wild type LTR; parameters: scale not given: the % may be the effect or the level left
[31] = test system: Human immunodeficiency virus; assay: Binding affinity to HIV wild type integrase U5 GACA/CT LTR relative to wild type LTR
[32] = test system: Human immunodeficiency virus type 1 integrase (Human immunodeficiency virus 1), Q7ZJM1 [N155H]; assay: Inhibition of HIV recombinant integrase N155H mutant assessed as strand transfer activity using U5 GTdA LTR by scintillation proximity assay relative to wild type LTR; parameters: scale not given: the % may be the effect or the level left
[33] = test system: Human immunodeficiency virus type 1 integrase (Human immunodeficiency virus 1), Q7ZJM1 [Q148R]; assay: Binding affinity to HIV recombinant integrase Q148R mutant using U5 INTCA LTR relative to wild type LTR
[34] = test system: Human immunodeficiency virus; assay: Inhibition of HIV wild type integrase assessed as strand transfer activity using U5 dTCA LTR by scintillation proximity assay relative to wild type LTR; parameters: scale not given: the % may be the effect or the level left
[35] = test system: Human immunodeficiency virus type 1 integrase (Human immunodeficiency virus 1), Q7ZJM1 [N155H]; assay: Inhibition of HIV recombinant integrase N155H mutant assessed as strand transfer activity using U5 GddA LTR by scintillation proximity assay relative to wild type LTR; parameters: scale not given: the % may be the effect or the level left
[36] = test system: Human immunodeficiency virus; assay: Inhibition of HIV wild type integrase assessed as strand transfer activity U5 GTCA/CC LTR by scintillation proximity assay relative to wild type LTR; parameters: scale not given: the % may be the effect or the level left
[37] = test system: Human immunodeficiency virus type 1 integrase (Human immunodeficiency virus 1), Q7ZJM1 [N155H]; assay: Inhibition of HIV recombinant integrase N155H mutant assessed as specific strand transfer activity using U5 GTdA LTR by scintillation proximity assay relative to wild type LTR; parameters: scale not given: the % may be the effect or the level left
[38] = test system: Human immunodeficiency virus type 1 integrase (Human immunodeficiency virus 1), Q7ZJM1 [Q148R]; assay: Inhibition of HIV recombinant integrase Q148R mutant assessed as strand transfer activity using U5 GTC LTR by scintillation proximity assay relative to wild type LTR; parameters: scale not given: the % may be the effect or the level left
[39] = test system: Human immunodeficiency virus; assay: Inhibition of HIV wild type integrase assessed as strand transfer activity using U5 GTAT LTR by scintillation proximity assay relative to wild type LTR; parameters: scale not given: the % may be the effect or the level left
[40] = test system: Human immunodeficiency virus type 1 integrase (Human immunodeficiency virus 1), Q7ZJM1 [Q148R]; assay: Inhibition of HIV recombinant integrase Q148R mutant assessed as strand transfer activity using U5 GdCA LTR by scintillation proximity assay relative to wild type LTR; parameters: scale not given: the % may be the effect or the level left
[41] = test system: Human immunodeficiency virus type 1 integrase (Human immunodeficiency virus 1), Q7ZJM1 [N155H]; assay: Inhibition of HIV recombinant integrase N155H mutant assessed as strand transfer activity using U5 GTC LTR by scintillation proximity assay relative to wild type LTR; parameters: scale not given: the % may be the effect or the level left
[42] = test system: Human immunodeficiency virus; assay: Binding affinity to HIV wild type integrase using U5 GTdA LTR relative to wild type LTR

## Cn1c(N2CCCCS2(=O)=O)nc(C(=O)NCc2ccc(F)cc2)c(O)c1=O [BMS-707035]
[1]
  Activity: 35%
[2]
  Activity: 75%
[3]
  Activity: 2%
[4]
  Activity: 3%
[5]
  Activity: 28%
[6]
  Activity: 75%
[7]
  Activity: 4%
[8]
  Activity: > 40%
[9]
  Activity: 75%
[10]
  Activity: < 25%
[11]
  Activity: > 20%
[12]
  Activity: 0.4%
[13]
  Activity: 25%
[14]
  Activity: 0.5%
[15]
  Activity: 4%
[16]
  Activity: 115%
[17]
  Activity: 8%
[18]
  Activity: 83%
[19]
  Activity: 51%
[20]
  Activity: 3%
[21]
  Activity: 136%
[22]
  Activity: 9%
[23]
  Activity: > 12%
[24]
  Activity: 75%
[25]
  Activity: 2%
[26]
  Activity: 135%
[27]
  Activity: 75%
[28]
  Activity: 3%
[29]
  Activity: 33%
[30]
  Activity: 19%
[31]
  Activity: < 25%
[32]
  Activity: 17%
[33]
  Activity: 2%
[34]
  Activity: 10%
[35]
  Activity: 0.6%
[36]
  Activity: < 25%
[37]
  Activity: 35%
[38]
  Activity: 19%
[39]
  Activity: < 25%
[40]
  Activity: 0.6%
[41]
  Activity: 90%
[42]
  Activity: 37%
